According to patent US20080194666A1, “Combination Treatment Methods” (MEDICAL RESEARCH COUNCIL, priority 2005, published 2008):

Test system: cabbage root fly
Experiment: Swede field trials in Norway, cabbage root fly damage
Format: in vivo
Experimental: An extensive program of non-public field trials, which included five crops of swede were carried out. The field trials design was based around multiple applications of either ECOguard® liquid (garlic juice concentrate) or granules (wood flour granules impregnated with the garlic juice concentrate) and in four out of the five swede trials was referenced against Dimethoate as a standard.

In the case of `CNC(=O)CSP(=S)(OC)OC` [Dimethoate], the “mean saleable yield (cat 1 + 2)” value (Ga-Fa) was 7.27 kg/sample, the “mean saleable yield (cat 1 + 2)” value (Mid-Troms) was 5.84 kg/sample and the “mean saleable yield (cat 1 + 2)” value (Sor Ost) was 22.16 kg/sample. The “mean saleable yield (cat 1 + 2)” value (Toten) was 11.95 kg/sample, the “Difference of Means, trt=1 (control) subtracted” value (in vivo) was −0.3100 and the “cabbage root fly damage versus control” value (in vivo) was “significantly reduced damage”. For the same compound, the “root damage index (RDI), % Change” value (in vivo) was −5.8%, the “root damage index (RDI), Mean” value (in vivo) was 43.90 and the “mean saleable yield (cat 1 + 2), Mean” value (mean of four sites) was 11.95 kg/sample. The “mean saleable yield, % Change” value (mean of four sites versus control) was “+8%”.
